Measured values: PubChem BioAssay (NCI)
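Exposure lasted 48 hours, with cells grown in 96-well plates and compounds tested at five concentrations. TGI denotes the concentration required for complete inhibition of growth.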

Experiments:
Assay in all cases: NCI-60 cell line screen, 48 h
[1] = test system: SN12C renal
[2] = test system: BT-549 breast
[3] = test system: NCI-H460 lung

SMILES	TGI [1]	TGI [2]	TGI [3]
CCCCC1=NNC(=O)C1	> 100 µM	> 100 µM	> 100 µM
O=C(NCC(=O)N1CCCC1C(=O)OC(=O)C1CCCN1C(=O)CNC(=O)OCc1ccccc1)OCc1ccccc1 (stereo not given)	> 100 µM		> 100 µM
CNC(C#N)c1ccc(OC)cc1 (stereo not given)	> 100 µM	> 100 µM	> 100 µM
Cc1cc(C)nc(NC(=O)c2ccc(Br)s2)c1	> 100 µM	> 100 µM	> 100 µM
Nc1ccc(-c2nc3cc(F)ccc3s2)cc1Cl	> 71.8 µM	> 63.2 µM	25 µM
Nc1ncnc2c1ccn2C/C=C\CO	> 100 µM	> 100 µM	> 100 µM
COC(=O)c1cc2c3c(ccc2[nH]1)N(C(=O)c1cc2cc(OC)c(OC)c(OC)c2[nH]1)CC3CCl (stereo not given)		> 100 µM	> 100 µM
CCOC(=O)c1c(NC(=O)c2cccs2)sc2c1CCCC2	> 100 µM	> 100 µM	> 100 µM
Nc1ccc(Oc2ccc(C34CC5CC6C3CC3CC4C(C5)C6(c4ccc(Oc5ccc(N)cc5)cc4)C3)cc2)cc1	> 100 µM	> 82.8 µM	61.2 µM
CC(C)CC1C(=O)NCCC(NC(=O)C(Cc2ccc(OC(C)(C)C)cc2)NC(=O)OC(C)(C)C)C(=O)NC(Cc2ccccc2)C(=O)NC(Cc2ccccc2)NC1=O (stereo not given)	39.8 µM		15 µM
Oc1c(C2=NNC(c3ccc(Cl)cc3Cl)C2)ccc2ccccc12 (stereo not given)	> 100 µM	> 100 µM	> 100 µM
OC1(C(F)(F)F)OCCN=C1C(F)(F)F (stereo not given)	> 100 µM	> 100 µM	> 100 µM
OCC1OC(c2cccc3cc(O)c(O)cc23)CC1O (stereo not given)	> 100 µM	> 100 µM	> 100 µM
CC(C)C(=O)[C@@]1(C)SC[C@H]2CCN=C21	> 100 µM	> 100 µM	> 100 µM
COc1cc(C(=O)n2c3ccc(Br)cc3c3nc4ccccc4nc32)cc(OC)c1OC	> 100 µM	> 100 µM	> 100 µM
COCC1OC(Sc2ccccc2)C(O)C(OC)C1OC (stereo not given)	> 100 µM	> 100 µM	> 100 µM
COc1ccccc1/C(=N\OCCC(=O)O)c1cccs1	> 100 µM	> 100 µM	> 100 µM
O=C1NC(NNc2ccccc2)=N/C1=C\c1ccccc1O	> 100 µM	> 100 µM	> 100 µM

SMILES	TGI [1]	TGI [2]	TGI [3]
CC(C)(C)[Si](C)(C)OCC1OC(n2ccc(N)nc2=O)C(O[Si](C)(C)C(C)(C)C)C1O[Si](C)(C)C(C)(C)C (stereo not given)	10.2 µM	3.73 µM	3.7 µM
CN(CC(=O)O)c1ncc2c(n1)-c1ccccc1SC2	> 100 µM		> 100 µM
NC1CC(=O)c2c(Br)csc21 (stereo not given)	> 100 µM	97.5 µM	> 100 µM
OCCCCCCCCCCCOc1ccc(C2OCC3(CO2)COC(c2ccc(OCCCCCCCCCCCO)cc2)OC3)cc1 (stereo not given)	> 50 µM	> 50 µM	> 50 µM
CCCCc1c(N(C)C)c(OC(C)=O)c(-c2cn(C)c3ccccc23)oc1=O	59.8 µM	72.2 µM	> 100 µM
O=C(O)CC1NC(/C(=C/c2ccccc2)NC(=O)c2ccccc2)OC1=O (stereo not given)	> 100 µM	44.2 µM	69.6 µM
CN(Cc1cnc2nc(N)nc(N)c2n1)c1ccc(C(=O)NC(CCC(=O)NCCC(P(=O)(O)O)P(=O)(O)O)C(=O)O)cc1 (stereo not given)	> 100 µM	> 100 µM	> 100 µM
O=C(NC(Cc1c[nH]c2ccccc12)C(=O)Nc1ccc(Br)cc1)OCc1ccccc1 (stereo not given)	22.5 µM	29.8 µM	20.1 µM
CC(C)(Cl)C(Br)CCC(C)(Cl)C(Br)CBr (stereo not given)	54.2 µM	42.9 µM	40.5 µM
COc1ccc(N2C(=O)C(=O)N(c3ccccc3[N+](=O)[O-])C2=S)cc1	> 100 µM		> 100 µM
FC(F)(F)c1ccc(N=C/C=C(/Nc2ccc(C(F)(F)F)cc2)c2ccc(Cl)cc2)cc1	26.3 µM		> 100 µM
O=Cc1cn(CCCCCCCCCCCCn2cc(C=O)c3ccccc32)c2ccccc12	> 100 µM	> 100 µM	
CC(=O)Nc1ccc(C(=O)NN2C(=O)CSC2c2ccc([N+](=O)[O-])cc2)cc1 (stereo not given)	> 100 µM		> 100 µM
CCCCN(CCCC)CC(O)c1cc(-c2ccc(C(F)(F)F)cc2)nc(-c2ccc(C(F)(F)F)cc2)c1 (stereo not given)	> 100 µM		> 100 µM
CC(C)(C)NC(NC(C)(C)C)=C(/C=C(/Cl)[N+](=O)[O-])[N+](=O)[O-]	> 100 µM		> 100 µM
CC(=O)c1ccc(NCc2cc(O)ccc2O)cc1	92.8 µM		39.9 µM
O=C1C2CC=CCC2C(=O)N1n1c(Cc2ccc(Cl)cc2)n[nH]c1=O (stereo not given)	> 100 µM	> 100 µM	
CS(=O)(=O)O[C@H]1CN2C[C@@H](O)[C@@H](O)[C@H]2[C@H]1CO		> 100 µM	> 100 µM
